# Data published in article PMC5736175, “Nicotinic alpha 7 receptor agonists EVP-6124 and BMS-933043, attenuate scopolamine-induced deficits in visuo-spatial paired associates learning” (PLoS ONE, 2017).
# “And” between values parts separate entries of the source, which are not always exact repeats. Identical values can stand only once.
# System: scopolamine-treated cynomolgus monkeys
# Test: Scopolamine-induced impairment of vsPAL task performance, treatment + scopolamine
# Format: in vivo, cynomolgus monkeys (Macaca Fasicularis)
# Method: Doses cited refer to the free base form of the compounds. […] All drugs were administered intramuscularly (i.m.) in a dosing volume of 0.1–0.2 ml/kg.
# On days when compound testing occurred, approximately half the cohort received one dose and the remainder another dose of the same compound and therefore dose order was staggered between animals. With the exception of EVP-6124, all other compounds were tested in a single dose response study.
# Cohen’s d values of >0.2, >0.5 and >0.8 are described using the conventions of small, medium, and large effects, respectively.
# [1] = RG3487 0.03 mg/kg + Individualized Scopolamine, MEAN of 8 animals
# [2] = RG3487 0.03 mg/kg + Individualized Scopolamine, individual animals, 0.03 mg/kg
# [3] = RG3487 0.03 mg/kg + scopolamine, MEAN of 8 animals
# [4] = RG3487 0.03 mg/kg + scopolamine, individual animals, 0.03 mg/kg
# [5] = RG3487 0.1 mg/kg + Individualized Scopolamine, MEAN of 8 animals
# [6] = RG3487 0.1 mg/kg + Individualized Scopolamine, individual animals, 0.1 mg/kg
# [7] = RG3487 0.1 mg/kg + scopolamine, MEAN of 8 animals
# [8] = RG3487 0.1 mg/kg + scopolamine, individual animals, 0.1 mg/kg
# [9] = RG3487 0.3 mg/kg + scopolamine, MEAN of 8 animals
# [10] = RG3487 0.3 mg/kg + scopolamine, individual animals, 0.3 mg/kg
smiles,measurement,setting,value
"Cl.O=C(N[C@@H]1CN2CCC1CC2)c1n[nH]c2ccccc12 [RG3487, N-[(3S)-1-Azabicyclo[2.2.2]oct-3-yl]-1H-indazole-3-carboxamide HCl]","Initial Correct, 3 Stimuli",[1],43.8%
same,"Initial Correct, 4 Stimuli",[1],25.0%
same,"Initial Correct, Overall Mean % Correct",[1],50.8%
same,"Initial correct, 2 Stimuli",[1],83.8%
same,"Initial Correct, 3 Stimuli",[2],60.0% and 20.0% and 40.0% and 30.0% and 90.0% and 10.0% and 80.0%
same,"Initial Correct, 4 Stimuli",[2],30.0% and 0.0% and 50.0% and 40.0%
same,"Initial Correct, Overall Mean % Correct",[2],60.0% and 36.7% and 46.7% and 76.7% and 40.0% and 30.0% and 70.0%
same,"Initial correct, 2 Stimuli",[2],90.0% and 70.0% and 60.0% and 100.0% and 80.0%
same,"Eventual Correct, 4 Stimuli","RG3487 0.03 mg/kg + scopolamine, MEAN",59.5%
same,% Completion,[3],73.5%
same,Average Response Latency (Avg Rsp Lat),[3],2136.0 ms
same,"Eventual Correct, 2 Stimuli",[3],98.8%
same,"Eventual Correct, 3 Stimuli",[3],83.8%
same,"Eventual Correct, Overall Mean % Correct",[3],78.2%
same,% Completion,[4],66.2% and 53.1% and 100.0% and 69.9% and 90.5% and 22.8% and 97.3% and 88.2%
same,Average Response Latency (Avg Rsp Lat),[4],2657.3 ms and 2531.6 ms and 1590.6 ms and 1325.7 ms and 2502.3 ms and 1742.8 ms and 2670.3 ms and 2067.1 ms
same,"Eventual Correct, 2 Stimuli",[4],100.0% and 90.0%
same,"Eventual Correct, 3 Stimuli",[4],100.0% and 60.0% and 70.0% and 50.0% and 90.0%
same,"Eventual Correct, 4 Stimuli",[4],50.0% and 0.0% and 90.0% and 70.0% and 100.0% and 16.7%
same,"Eventual Correct, Overall Mean % Correct",[4],83.3% and 50.0% and 96.7% and 80.0% and 100.0% and 68.9%
same,"Initial Correct, 3 Stimuli",[5],47.5%
same,"Initial Correct, 4 Stimuli",[5],13.8%
same,"Initial Correct, Overall Mean % Correct",[5],50.4%
same,"Initial correct, 2 Stimuli",[5],90.0%
same,"Initial Correct, 3 Stimuli",[6],70.0% and 10.0% and 60.0% and 50.0% and 80.0% and 40.0% and 30.0%
same,"Initial Correct, 4 Stimuli",[6],20.0% and 0.0% and 30.0% and 10.0% and 50.0%
same,"Initial Correct, Overall Mean % Correct",[6],63.3% and 30.0% and 46.7% and 56.7% and 43.3%
same,"Initial correct, 2 Stimuli",[6],100.0% and 80.0% and 90.0%
same,% Completion,[7],75.6%
same,Average Response Latency (Avg Rsp Lat),[7],2202.7 ms
same,"Eventual Correct, 2 Stimuli",[7],100.0%
same,"Eventual Correct, 3 Stimuli",[7],91.3%
same,"Eventual Correct, 4 Stimuli",[7],48.1%
same,"Eventual Correct, Overall Mean % Correct",[7],79.8%
same,"Eventual Correct, 2 Stimuli","RG3487 0.1 mg/kg + scopolamine, individual animals",100.0%
same,% Completion,[8],58.8% and 65.1% and 100.0% and 88.7% and 67.1% and 35.0% and 91.9% and 98.1%
same,Average Response Latency (Avg Rsp Lat),[8],2536.1 ms and 2248.5 ms and 1598.6 ms and 1289.8 ms and 2048.9 ms and 2712.3 ms and 2472.3 ms and 2715.2 ms
same,"Eventual Correct, 3 Stimuli",[8],100.0% and 80.0% and 70.0%
same,"Eventual Correct, 4 Stimuli",[8],50.0% and 16.7% and 80.0% and 70.0% and 40.0% and 11.1% and 100.0%
same,"Eventual Correct, Overall Mean % Correct",[8],83.3% and 65.6% and 93.3% and 90.0% and 80.0% and 63.7% and 62.2% and 100.0%
same,% Completion,[9],74.7%
same,Average Response Latency (Avg Rsp Lat),[9],2047.1 ms
same,"Initial Correct, 3 Stimuli",[9],42.5%
same,"Initial Correct, 4 Stimuli",[9],20.4%
same,"Initial Correct, Overall Mean % Correct",[9],48.9%
same,"Initial correct, 2 Stimuli",[9],83.8%
same,% Completion,[10],48.2% and 79.1% and 98.4% and 87.1% and 95.1% and 24.7% and 100.0% and 65.1%
same,Average Response Latency (Avg Rsp Lat),[10],1983.4 ms and 2543.8 ms and 1430.4 ms and 1376.1 ms and 2172.3 ms and 1933.4 ms and 2432.3 ms and 2505.1 ms
same,"Initial Correct, 3 Stimuli",[10],30.0% and 70.0% and 0.0% and 40.0%
same,"Initial Correct, 4 Stimuli",[10],0.0% and 12.5% and 30.0% and 10.0% and 60.0% and 20.0%
same,"Initial Correct, Overall Mean % Correct",[10],43.3% and 37.5% and 63.3% and 76.7% and 20.0% and 46.7% and 60.0%
same,"Initial correct, 2 Stimuli",[10],100.0% and 70.0% and 90.0% and 40.0%
